Results published in publication PMC3034772 (Pharmaceutical research, 2010).
Several values for one entry are separate records, joined by “and”; a condition that tells them apart may be missing. Equal entries are not always repeated. Where two headings read alike, the source gives them in different places.

Key:
[1] = Charge class Q, dominant calculated charge state at pH 7.4; assay type: physicochemical
[2] = in vivo
[3] = In combo PAMPA-BBB model, calculated log Po in situ
[4] = PAMPA; for Pm^7.4: pH 7.4
[5] = pKa determination, potentiometric; details: this work, 25°C, […] KCl (footnote b)
[6] = cited from earlier work
[7] = cited from earlier work; remark: listed apart in the source
[8] = PAMPA
[9] = In situ brain perfusion permeability; details: from literature PS
physchem [10] = details: pKa
[11] = in vivo; cited from earlier work
[12] = In situ brain perfusion, individual literature values; details: from literature PS
[13] = ref [38], cited from earlier work
[14] = PAMPA; for Pm^7.4: pH 7.4; remark: listed apart in the source
[15] = mouse, in vivo
physchem [16] = test: physchem
[17] = dominant calculated concentration fraction of the drug in a charge state
[18] = efflux inhibition column: not satbl

| SMILES | Q (charge class) [1] | log Po^in situ (obs) [2] | obs–calc (log Po^in situ) [3] | log PABL [4] | log Po [4] | log Ppara [4] | Pm^7.4 [4] | PS ([6]; in vivo) | log PS ([6]; in vivo) | Q (charge class) [1, 17] | obs–calc (log Po^in situ) ([3]; no efflux inhibition) | other results |
| --- | --- | --- | --- | --- | --- | --- | --- | --- | --- | --- | --- | --- |
| O=C(O)CCCc1ccc(N(CCCl)CCCl)cc1 [Chlorambucil] | − | −0.80 | 0.3 | −2.87 | −2.45 | −7.16 | 6 | 250 10^−4 mLg^−1s^−1 | −1.60 |  |  | pKa ([5]; second pKa column): 4.28; pKa [5]: 4.6 |
| CN/C(=N/CCSCc1nc[nH]c1C)NC#N [Cimetidine] |  |  |  |  |  |  |  |  |  | 0 | −0.4 and −0.2 | PS ([7]; efflux inhibition bcrp(−/−)): 1 10^−4 mLg^−1s^−1; log PS ([7]; efflux inhibition bcrp(−/−)): −4.08; log PABL [8]: −4.62; log Po [8]: −6.40; Pm^7.4 ([8]; pH 7.4): 0.4; obs–calc (log Po^in situ) ([3]; efflux inhibition bcrp(−/−)): −0.4; obs–calc (log Po^in situ) ([3]; efflux inhibition mdr1a(−/−)): 0.0; log Po^in situ (obs) ([9]; efflux inhibition bcrp(−/−)): −5.95; pKa (physchem [10]): 6.13 |
| COc1ccc2c3c1O[C@H]1[C@@H](O)C=C[C@H]4[C@@H](C2)N(C)CC[C@@]341 [Codeine] | + | −3.80 | −0.2 | −4.69 | −3.68 | −7.16 | 27 | 33 10^−4 mLg^−1s^−1 | −2.48 |  |  | log BB (brain-to-plasma total concentration ratio) [11]: 0.55 |
| COc1cccc2c1C(=O)c1c(O)c3c(c(O)c1C2=O)C[C@@](O)(C(=O)CO)C[C@@H]3O[C@H]1C[C@H](N)[C@H](O)[C@H](C)O1 [Doxorubicin] |  |  |  | −4.61 | −4.23 | −12 | 0.3 |  |  | + |  | PS ([7]; efflux inhibition mrp1(−/−)): 2 10^−4 mLg^−1s^−1; log PS ([7]; efflux inhibition mrp1(−/−)): −3.66; log Po^in situ (obs) ([12]; efflux inhibition verapamil): −3.14; obs–calc (log Po^in situ) ([3]; efflux inhibition mdr1a(−/−)): 1.7; obs–calc (log Po^in situ) ([3]; efflux inhibition mrp1(−/−)): 1.4; obs–calc (log Po^in situ) ([3]; efflux inhibition verapamil): 1.6; log Po^in situ (obs) ([9]; efflux inhibition mrp1(−/−)): −3.35; PS ([6]; efflux inhibition verapamil): 4 10^−4 mLg^−1s^−1; log PS ([6]; efflux inhibition verapamil): −3.44 |
| CNCCC(Oc1ccc(C(F)(F)F)cc1)c1ccccc1 (stereo not shown) [Fluoxetine] |  |  |  |  |  |  |  |  |  |  |  | pKa [5]: 9.79 |
| CC(C(=O)O)c1ccc(-c2ccccc2)c(F)c1 (stereo not shown) [Flurbiprofen] |  |  |  | −2.84 | −2.35 | −6.99 | 3 | 158 10^−4 mLg^−1s^−1 | −1.80 | − |  | pKa [13]: 4.18; log Po^in situ (obs) [12, 18]: −0.58; obs–calc (log Po^in situ) [3, 18]: 0.0 |
| CC(C)n1c(/C=C/C(O)CC(O)CC(=O)O)c(-c2ccc(F)cc2)c2ccccc21 (stereo not shown) [Fluvastatin Acid] |  |  |  |  |  |  |  |  |  | − | 0.9 | log Po [14]: −3.56; Pm^7.4 [14]: 0.2 |
| COc1ccc2c3c1O[C@H]1C[C@@H](O)C=C[C@@]31CCN(C)C2 [Galanthamine] | + | −3.24 | 0.2 | −4.89 | −3.41 | −7.73 | 22 | 33 10^−4 mLg^−1s^−1 | −2.48 |  |  | PS ([7]; mouse, in vivo): 35 10^−4 mLg^−1s^−1; log PS ([7]; mouse, in vivo): −2.46; log Po^in situ (obs) [15]: −3.21; log BB (brain-to-plasma total concentration ratio) [11]: 0.00; pKa (physchem [16]): 8.62 |
| OCCOCCN1CCN(C(c2ccccc2)c2ccc(Cl)cc2)CC1 (stereo not shown) [Hydroxyzine] |  |  |  | −3.26 | −3.72 | −8 | 82 |  |  | 0 | 0.7 | pKa [13]: 7.52; pKa ([13]; second pKa column): 2.66; log Po^in situ (obs) ([12]; efflux inhibition CsA): −3.04; obs–calc (log Po^in situ) ([3]; efflux inhibition CsA): 0.6; PS ([6]; efflux inhibition CsA): 393 10^−4 mLg^−1s^−1; log PS ([6]; efflux inhibition CsA): −1.41 |
| CCOC(=O)C1(c2ccccc2)CCN(C)CC1 [Meperidine] | + | −2.05 | −0.5 |  |  |  |  | 549 10^−4 mLg^−1s^−1 | −1.26 |  |  | log Po [14]: −1.68; Pm^7.4 [14]: 1290; PS ([7]; mouse, in vivo): 525 10^−4 mLg^−1s^−1; log PS ([7]; mouse, in vivo): −1.28; log Po^in situ (obs) [15]: −2.08 |
